From PubChem BioAssay AID180 (DTP/NCI, 2004)
“And” between values parts separate entries of the source, which are not always exact repeats. Equal values may be shown once.

Test system: BDF1 mice, Adenocarcinoma 755 s.c., tumor weight T/C
Assay: NCI In Vivo Anticancer Drug Screen. Data for tumor model Adenocarcinoma 755 (subcutaneous) in B6D2F1 (BDF1) mice
Settings: endpoint: mean tumor weight, higher = larger tumour
Method in brief: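 Tumor-bearing mice receive test compound while controls get vehicle alone. Antitumor effect is scored from survival or tumor dimensions as a T/C quotient.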

[1] = dose: 25.0 mg/kg/injection, schedule: Q01DX011 (ip), vehicle: carboxymethylcellulose (CMC)
[2] = dose: 50.0 mg/kg/injection, schedule: Q01DX011 (ip), vehicle: carboxymethylcellulose (CMC)
[3] = dose: 100.0 mg/kg/injection, schedule: Q01DX011 (ip), vehicle: carboxymethylcellulose (CMC)
[4] = dose: 200.0 mg/kg/injection, schedule: Q01DX011 (ip), vehicle: carboxymethylcellulose (CMC)
[5] = dose: 15.0 mg/kg/injection, schedule: Q01DX011 (ip), vehicle: methylcellulose (MC)
[6] = dose: 31.0 mg/kg/injection, schedule: Q01DX011 (ip), vehicle: methylcellulose (MC)
[7] = dose: 25.0 mg/kg/injection, schedule: Q01DX011 (ip), vehicle: saline

## CC1CN1P(=S)(N1CCCCC1)N1CC1C (centres undefined)
[1]
  T/C: 51 % of control
[2]
  T/C: 150 % of control
dose: 56.0 mg/kg/injection, schedule: Q01DX011 (ip), vehicle: carboxymethylcellulose (CMC)
  T/C: 64 % of control
[3]
  T/C: 121 % of control
dose: 112.0 mg/kg/injection, schedule: Q01DX011 (ip), vehicle: carboxymethylcellulose (CMC)
  T/C: 19 % of control
[4]
  T/C: 102 % of control

## C[C@H]1C[C@H]2[C@@H]3CC[C@](O)(C(=O)CF)[C@@]3(C)C[C@H](O)[C@]2(F)[C@@]2(C)C=CC(=O)C=C12
dose: 0.62 mg/kg/injection, schedule: Q01DX011 (sc), vehicle: steriod suspending solution
  T/C: 89 % of control
dose: 1.0 mg/kg/injection, schedule: Q01DX011 (sc), vehicle: steriod suspending solution
  T/C: 76 % of control
dose: 1.25 mg/kg/injection, schedule: Q01DX011 (sc), vehicle: steriod suspending solution
  T/C: 69 % of control
dose: 10.0 mg/kg/injection, schedule: Q01DX011 (sc), vehicle: steriod suspending solution
  T/C: 16 % of control and 29 % of control and 33 % of control
dose: 20.0 mg/kg/injection, schedule: Q01DX011 (sc), vehicle: steriod suspending solution
  T/C: 18 % of control and 27 % of control
dose: 40.0 mg/kg/injection, schedule: Q01DX011 (sc), vehicle: steriod suspending solution
  T/C: 11 % of control and 14 % of control
dose: 80.0 mg/kg/injection, schedule: Q01DX011 (sc), vehicle: steriod suspending solution
  T/C: 14 % of control
dose: 160.0 mg/kg/injection, schedule: Q01DX011 (sc), vehicle: steriod suspending solution
  T/C: 4 % of control

## Cc1cc(Nc2cccc(Cl)c2)nc(N)n1
[5]
  T/C: 114 % of control
[6]
  T/C: 56 % of control

## CCOc1nc(N)nc2n[nH]nc12
dose: 75.0 mg/kg/injection, schedule: Q01DX011 (ip), vehicle: carboxymethylcellulose (CMC)
  T/C: 67 % of control
dose: 150.0 mg/kg/injection, schedule: Q01DX011 (ip), vehicle: carboxymethylcellulose (CMC)
  T/C: 9 % of control

## COc1ncnc2nc[nH]c12
dose: 62.0 mg/kg/injection, schedule: Q01DX011 (ip), vehicle: other
  T/C: 107 % of control
dose: 125.0 mg/kg/injection, schedule: Q01DX011 (ip), vehicle: other
  T/C: 90 % of control
dose: 250.0 mg/kg/injection, schedule: Q01DX011 (ip), vehicle: other
  T/C: 44 % of control

## O=C(Nc1ccc(NC2=NCCN2)cc1)c1ccc(C(=O)Nc2ccc(NC3=NCCN3)cc2)cc1
dose: 4.0 mg/kg/injection, schedule: Q01DX011 (ip), vehicle: saline
  T/C: 96 % of control
dose: 8.0 mg/kg/injection, schedule: Q01DX011 (ip), vehicle: saline
  T/C: 85 % of control
dose: 16.0 mg/kg/injection, schedule: Q01DX011 (ip), vehicle: saline
  T/C: 83 % of control

## C[C@H]1C(=O)O[C@@H]2CCN3CC=C(COC(=O)[C@](C)(O)[C@@]1(C)O)[C@H]23
dose: 12.5 mg/kg/injection, schedule: Q#A X022 (ip), vehicle: carboxymethylcellulose (CMC)
  T/C: 70 % of control
dose: 12.5 mg/kg/injection, schedule: Q#A X022 (oral), vehicle: carboxymethylcellulose (CMC)
  T/C: 65 % of control
dose: 22.5 mg/kg/injection, schedule: Q01DX011 (ip), vehicle: carboxymethylcellulose (CMC)
  T/C: 45 % of control
[1]
  T/C: 74 % of control
dose: 25.0 mg/kg/injection, schedule: Q#A X022 (ip), vehicle: carboxymethylcellulose (CMC)
  T/C: 69 % of control
dose: 25.0 mg/kg/injection, schedule: Q#A X022 (oral), vehicle: carboxymethylcellulose (CMC)
  T/C: 44 % of control
dose: 45.0 mg/kg/injection, schedule: Q01DX011 (ip), vehicle: carboxymethylcellulose (CMC)
  T/C: 34 % of control
[2]
  T/C: 61 % of control
dose: 50.0 mg/kg/injection, schedule: Q01DX011 (oral), vehicle: saline
  T/C: 36 % of control
dose: 50.0 mg/kg/injection, schedule: Q#A X022 (ip), vehicle: carboxymethylcellulose (CMC)
  T/C: 22 % of control
dose: 50.0 mg/kg/injection, schedule: Q#A X022 (oral), vehicle: carboxymethylcellulose (CMC)
  T/C: 7 % of control
dose: 75.0 mg/kg/injection, schedule: Q03DX004 (ip), vehicle: carboxymethylcellulose (CMC)
  T/C: 101 % of control
dose: 90.0 mg/kg/injection, schedule: Q01DX011 (ip), vehicle: carboxymethylcellulose (CMC)
  T/C: 15 % of control
[3]
  T/C: 42 % of control
dose: 100.0 mg/kg/injection, schedule: Q01DX011 (oral), vehicle: carboxymethylcellulose (CMC)
  T/C: 38 % of control
dose: 100.0 mg/kg/injection, schedule: Q01DX011 (oral), vehicle: saline
  T/C: 27 % of control
dose: 100.0 mg/kg/injection, schedule: Q#A X022 (ip), vehicle: carboxymethylcellulose (CMC)
  T/C: 15 % of control
dose: 100.0 mg/kg/injection, schedule: Q#A X022 (oral), vehicle: carboxymethylcellulose (CMC)
  T/C: 7 % of control
dose: 150.0 mg/kg/injection, schedule: Q03DX004 (ip), vehicle: carboxymethylcellulose (CMC)
  T/C: 46 % of control
dose: 180.0 mg/kg/injection, schedule: Q01DX011 (ip), vehicle: carboxymethylcellulose (CMC)
  T/C: 7 % of control
dose: 180.0 mg/kg/injection, schedule: Q01DX011 (ip), vehicle: methylcellulose (MC)
  T/C: 24 % of control
[4]
  T/C: 13 % of control
dose: 200.0 mg/kg/injection, schedule: Q01DX011 (oral), vehicle: carboxymethylcellulose (CMC)
  T/C: 14 % of control
dose: 200.0 mg/kg/injection, schedule: Q01DX011 (oral), vehicle: saline
  T/C: 4 % of control
dose: 300.0 mg/kg/injection, schedule: Q03DX004 (ip), vehicle: carboxymethylcellulose (CMC)
  T/C: 24 % of control
dose: 400.0 mg/kg/injection, schedule: Q01DX011 (oral), vehicle: carboxymethylcellulose (CMC)
  T/C: 6 % of control
dose: 400.0 mg/kg/injection, schedule: Q01DX011 (oral), vehicle: saline
  T/C: 5 % of control
dose: 600.0 mg/kg/injection, schedule: Q03DX004 (ip), vehicle: carboxymethylcellulose (CMC)
  T/C: 16 % of control

## CC(=O)[C@@]1(O)CC[C@H]2[C@@H]3C[C@H](C)C4=CC(=O)CC[C@]4(C)[C@H]3[C@@H](O)C[C@@]21C
dose: 7.0 mg/kg/injection, schedule: Q01DX011 (sc), vehicle: steriod suspending solution
  T/C: 70 % of control
dose: 8.0 mg/kg/injection, schedule: Q01DX011 (sc), vehicle: steriod suspending solution
  T/C: 76 % of control
dose: 14.0 mg/kg/injection, schedule: Q01DX011 (sc), vehicle: steriod suspending solution
  T/C: 54 % of control
dose: 16.0 mg/kg/injection, schedule: Q01DX011 (sc), vehicle: steriod suspending solution
  T/C: 76 % of control
dose: 450.0 mg/kg/injection, schedule: Q01DX011 (sc), vehicle: steriod suspending solution
  T/C: 87 % of control

## CS(=O)(=O)OCC1OC(OCc2ccccc2)CC1O (centres undefined)
[7]
  T/C: 102 % of control

## CC1CN1P(=O)(N1CCCCC1)N1CC1C (centres undefined)
dose: 3.0 mg/kg/injection, schedule: Q01DX011 (ip), vehicle: saline
  T/C: 107 % of control and 86 % of control
dose: 6.0 mg/kg/injection, schedule: Q01DX011 (ip), vehicle: saline
  T/C: 57 % of control and 71 % of control
dose: 48.0 mg/kg/injection, schedule: Q01DX011 (ip), vehicle: saline
  T/C: 11 % of control

## CSc1ncc(Br)c(Nc2ccc(C)cc2)n1
[5]
  T/C: 75 % of control
[6]
  T/C: 74 % of control
dose: 62.0 mg/kg/injection, schedule: Q01DX011 (ip), vehicle: methylcellulose (MC)
  T/C: 75 % of control
dose: 125.0 mg/kg/injection, schedule: Q01DX011 (ip), vehicle: methylcellulose (MC)
  T/C: 92 % of control
dose: 250.0 mg/kg/injection, schedule: Q01DX011 (ip), vehicle: methylcellulose (MC)
  T/C: 68 % of control

## COc1cc(-c2ccc(Nc3ccccc3C(=O)O)c(OC)c2)ccc1Nc1ccccc1C(=O)O
[7]
  T/C: 75 % of control
dose: 50.0 mg/kg/injection, schedule: Q01DX011 (ip), vehicle: saline
  T/C: 28 % of control
dose: 100.0 mg/kg/injection, schedule: Q01DX011 (ip), vehicle: saline
  T/C: 5 % of control

## O=S(=O)(OCCCl)OCCCl
dose: 12.5 mg/kg/injection, schedule: Q01DX011 (ip), vehicle: olive oil, sesame oil, peanut oil
  T/C: 109 % of control
dose: 25.0 mg/kg/injection, schedule: Q01DX011 (ip), vehicle: olive oil, sesame oil, peanut oil
  T/C: 86 % of control

## CC1(C)O[C@@H]2C[C@H]3[C@@H]4CCC5=CC(=O)C=C[C@]5(C)[C@@]4(F)[C@@H](O)C[C@]3(C)[C@]2(C(=O)CO)O1
dose: 0.7 mg/kg/injection, schedule: Q01DX011 (sc), vehicle: steriod suspending solution
  T/C: 38 % of control
dose: 3.0 mg/kg/injection, schedule: Q01DX011 (sc), vehicle: steriod suspending solution
  T/C: 53 % of control
dose: 6.0 mg/kg/injection, schedule: Q01DX011 (sc), vehicle: steriod suspending solution
  T/C: 40 % of control
